{"source": "patent US20230088717A1", "about": "“NEW IMMUNOSTIMULATORS AND USE THEREOF IN IMMUNOTHERAPY” (NANTES UNIVERSITÉ, priority 2020, published 2023)", "key": {"[1]": {"tested_on": "iNKT cells", "experiment": "iNKT cell activation: cytokine secretion (ELISA) after co-culture with glycolipid-loaded CD1d-transfected HEK293 or HeLa cells", "assay_type": "cell-based, human", "conditions": "for Delta LogEC50 IFN-γ / Delta LogEC50 IL-2 / Delta LogEC50 IL-13: KRN7000 vs 6-PEG3-NH2-GalCer; for EC50: Homo sapiens, iNKT, 6 h; for EC50 / LogEC50 IFN-γ / LogEC50 IL-2 / LogEC50 IL-13: 6 h co-culture", "procedure": "(§1) Classically, CD1d expressing cells are incubated overnight in presence or in the absence of the compound to be assessed, allowing loading on the CD1d molecule. Then, CD1d cells are co-incubated with iNKTs. Six hours of co-culture are sufficient to be able to detect most of the cytokine release (such as IFN-γ, IL-13 and/or IL-2) in the supernatant. Various time of incubation, up to 48H, can be performed depending of the kinetic of some late cytokines (such as IL-10). The quantity or concentration of at least one cytokine is thus measured in the supernatant after an incubation time of from 6 hours to 48 hours. An increased quantity or concentration of at least one cytokine in the presence of the assessed compound by comparison to in its absence means that said compound is a iKNT stimulator.\n(§2) To analyse ability of 6-PEG3-NHR-GalCer 2 and 6-Mal-PEGn-GalCer 3 to activate iNKTs, several types of presenting cells were used, such as HEK293 or HeLa cells transfected to express CD1d molecule on their membrane. Non-transfected cells were also used as negative control “at first glance” since presentation of glycolipids to iNKT cells is known to be dependent on CD1d.\n(§3) These cells were then used as antigen presenting cells (APC) to compare the iNKT cell activation potency of the canonical α-GalCer (KRN7000) ligand to that of the analogue 6″-modified with an aminoPEG linking arm 6-PEG3-NH2-GalCer 2a. APC were loaded with glycolipids after co-incubation at various concentrations overnight. Next day, cells were washed and co-cultured with iNKTs (2 APC for 1 iNKT). After 6 hours, supernatants were collected, and cytokines secretions (IFN-γ and IL-2 for Th1 panel and IL-13 for Th2 panel) was measured by ELISA (FIGS. 2 and 3)\n(§4) 6-PEG3-NHR-GalCer analogues of 6-PEG3-NH2-GalCer 2a were evaluated on transfected CD1d and non-CD1d Hela and HEK293 cells for secretion of INF-γ and IL13 stimulation (see FIGS. 10 and 11)."}, "[2]": {"tested_on": "HeLa-CD1d spheroid", "experiment": "Cytotoxicity induced by iNKTs on HeLa-CD1d 3D spheroid model", "assay_type": "cell-based", "conditions": "72 hours, preliminary data (FIG. 9B)"}, "[3]": {"tested_on": "HeLa-CD1d cells", "experiment": "Cytotoxicity induced by iNKTs on HeLa-CD1d cells (flow cytometry)", "assay_type": "cell-based", "conditions": "HeLa CD1d transfected cells, 24 hours co-culture (FIG. 7)", "procedure": "Moreover, 6-PEG3-NH2-GalCer 2a is not only one of a strongest activator of iNKTs cells known for cytokine secretions, but that he is also able to induce a better iNKT cytotoxicity effect than KRN7000. iNKT were co-cultured with HeLa CD1 d transfected cells for 24 hours in presence of various concentration of glycolipids, then, mortality of target HeLa-CD1d cells was analysed by Flow Cytometry."}, "[4]": {"target": "T1, CD1d (Homo sapiens, UniProt P15813)", "T1 construct": "endogenous in cells; host or cells: HEK293 (non-transfected) and HEK293-CD1d (transfected to express CD1d)", "T1 sequence (P15813 20-335)": "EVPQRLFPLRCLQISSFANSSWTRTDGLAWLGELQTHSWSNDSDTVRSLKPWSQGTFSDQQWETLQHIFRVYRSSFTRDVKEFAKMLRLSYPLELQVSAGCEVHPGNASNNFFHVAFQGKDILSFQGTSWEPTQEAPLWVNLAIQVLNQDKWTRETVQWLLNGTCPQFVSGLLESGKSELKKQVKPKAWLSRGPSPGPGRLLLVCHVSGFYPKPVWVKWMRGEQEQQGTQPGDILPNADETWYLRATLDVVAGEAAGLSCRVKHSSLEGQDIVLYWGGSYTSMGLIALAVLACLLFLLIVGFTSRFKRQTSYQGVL", "T1 sequence (P61769 21-119 partner)": "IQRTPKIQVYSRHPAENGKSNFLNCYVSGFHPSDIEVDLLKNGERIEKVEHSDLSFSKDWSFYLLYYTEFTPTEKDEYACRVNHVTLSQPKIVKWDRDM", "experiment": "CD1d-dependency of iNKT activation: cytokine secretion in presence of anti-CD1d antibody", "assay_type": "cell-based", "procedure": "It was then checked whether iNKT cells activation might be provided by a very low expression of CD1d on the proper non-CD1d tumor cells that cannot be detected by flow cytometry. To this aim, the same activation experiments were performed but in presence of an anti-CD1d antibody. HEK293 cells and HEK293-CD1d were loaded with 6-PEG3-NH2-GalCer a2 as described previously. Before co-culture with iNKTs cells, loaded presenting cells were co-incubated with the anti-CD1d antibody for 1 hours, iNKTs were added directly in suspension and co-cultured 6 hours before cytokine analysis in supernatant (ELISA). If activation signal was provided by presentation of the modified glycolipid through CD1d, it was expected to observe a blockage, or at least a decrease, of cytokine secretion after blocking the signal with the anti-CD1d antibody."}, "[5]": {"tested_on": "iNKT cells in PBMC", "experiment": "iNKT phenotyping: expansion of iNKT cells in PBMC, CD8+/CD4+", "assay_type": "cell-based, human", "conditions": "PBMC cultured ten days with high dose of glycolipid (FIG. 8)", "procedure": "Comparative study was run to establish either a CD4 or CD8 orientation of the immune response can be induced using 6-PEG3-NH2-GalCer 2a vs KRN7000 (see FIG. 8). PBMC were cultured in presence of an high dose of KRN or 6-PEG3-NH2-GalCer 2a, after ten days, phenotype of iNKTs was analysed by Flow Cytometry."}, "[6]": {"tested_on": "iNKT cells", "experiment": "iNKT cell activation: cytokine secretion after co-culture with glycolipid-loaded non-transfected (non-CD1d) tumor cells", "assay_type": "cell-based, human", "conditions": "for secretion of cytokines: non-CD1d Hela and HEK293 cells", "procedure": "as §1, §2, §3\nTo confirm this discovery, various other colon, lung, embryonic kidney, cervical cancer cells lines were screened by RT-PCR to define those that express small levels of CD1d and to confirm their ability to self-present the new potent iNKT agonist (see Table 6).\nas §4"}, "[7]": {"conditions": "HEK293 (embryonic kidney), non transfected, as presenting cells"}, "[8]": {"conditions": "HeLa (cervix), non transfected, as presenting cells"}, "[9]": {"conditions": "Meso13 (mesotheliome) as presenting cells"}, "[10]": {"conditions": "Meso34 (mesotheliome) as presenting cells"}, "[11]": {"conditions": "Meso225 (mesotheliome) as presenting cells"}, "[12]": {"conditions": "SW1116 (colon) as presenting cells"}}, "note": "Like-named read-outs stand apart in the source and are kept apart here.", "data": [{"smiles": "CCCCCCCCCCCCCCCCCCCCCCCCCC(=O)N[C@@H](CO[C@H]1OC(COC(=O)NCCOCCOCCOCCNC(=O)CCOCCOCCOCCOCCOCCOCCNC(=O)CCN2C(=O)C=CC2=O)[C@H](O)C(O)[C@@H]1O)[C@H](O)[C@H](O)CCCCCCCCCCCCCC", "note": "(some centres unmarked) [6-Mal-PEG6-GalCer 3a]", "values": [{"measurement": "iNKT activation potency (cytokine release) relative to KRN7000", "setting": "[1]; general statement, presenting cells not specified at the place", "value": "~10", "unit": "fold"}]}, {"smiles": "CCCCCCCCCCCCCCCCCCCCCCCCCC(=O)N[C@@H](CO[C@H]1OC(COC(=O)NCCOCCOCCOCCN)[C@H](O)C(O)[C@@H]1O)[C@H](O)[C@H](O)CCCCCCCCCCCCCC", "note": "(some centres unmarked) [6-PEG3-NH2-GalCer 2a]", "values": [{"measurement": "induction of cell death compared with KRN7000", "setting": "[2]", "value": "more efficient than KRN7000 to induce cell death"}, {"measurement": "efficiency to induce iNKT cytotoxicity relative to KRN7000", "setting": "[3]", "value": "≥ 10", "unit": "fold"}, {"measurement": "inhibition of cytokine (IL-2) secretion by anti-CD1d antibody", "setting": "[4]; CD1d-HEK293 positive cells (FIG. 5A)", "value": "only an incomplete inhibition"}, {"measurement": "inhibition of cytokine (IL-2) secretion by anti-CD1d antibody", "setting": "[4]; non transfected (non CD1d) HEK293 cells (FIG. 5B)", "value": "almost completely eliminated"}, {"measurement": "CD8+ / CD4+ orientation of the iNKT response", "setting": "[5]", "value": "induces a higher cytotoxic CD8+ response from PBMC cells than KRN7000"}, {"measurement": "cytokine secretion / iNKT activation potency relative to KRN7000", "setting": "[1]; CD1d-transfected HEK293 / HeLa cells", "value": "~100", "unit": "fold"}, {"measurement": "Delta LogEC50 IFN-γ", "setting": "[1]; HEK293-CD1d", "value": 2.333}, {"measurement": "Delta LogEC50 IL-2", "setting": "[1]; HEK293-CD1d", "value": 1.55}, {"measurement": "Delta LogEC50 IL-13", "setting": "[1]; HEK293-CD1d", "value": 2.534}, {"measurement": "Delta LogEC50 IFN-γ", "setting": "[1]; HeLa-CD1d", "value": 1.877}, {"measurement": "Delta LogEC50 IL-2", "setting": "[1]; HeLa-CD1d", "value": 1.495}, {"measurement": "Delta LogEC50 IL-13", "setting": "[1]; HeLa-CD1d", "value": 2.089}, {"measurement": "EC50", "setting": "[1]; HEK293-CD1d presenting cells, read-out: LogEC50 IFN-γ (converted)", "value": 0.0166, "unit": "nM"}, {"measurement": "EC50", "setting": "[1]; HEK293-CD1d presenting cells, read-out: LogEC50 IL-2 (converted)", "value": 0.0589, "unit": "nM"}, {"measurement": "EC50", "setting": "[1]; HEK293-CD1d presenting cells, read-out: LogEC50 IL-13 (converted)", "value": 0.0324, "unit": "nM"}, {"measurement": "EC50", "setting": "[1]; HeLa-CD1d presenting cells, read-out: LogEC50 IFN-γ (converted)", "value": 0.0295, "unit": "nM"}, {"measurement": "EC50", "setting": "[1]; HeLa-CD1d presenting cells, read-out: LogEC50 IL-2 (converted)", "value": 0.0155, "unit": "nM"}, {"measurement": "EC50", "setting": "[1]; HeLa-CD1d presenting cells, read-out: LogEC50 IL-13 (converted)", "value": 0.117, "unit": "nM"}, {"measurement": "IFN-γ secretion 10^−7M", "setting": "[6]; HCT116 (colon) as presenting cells", "value": "Low"}, {"measurement": "IFN-γ secretion 10^−7M", "setting": "[6]; [7]", "value": "High"}, {"measurement": "IFN-γ secretion 10^−7M", "setting": "[6]; [8]", "value": "High"}, {"measurement": "IFN-γ secretion 10^−7M", "setting": "[6]; [9]", "value": "High"}, {"measurement": "IFN-γ secretion 10^−7M", "setting": "[6]; [10]", "value": "High"}, {"measurement": "IFN-γ secretion 10^−7M", "setting": "[6]; [11]", "value": "High"}, {"measurement": "IFN-γ secretion 10^−7M", "setting": "[6]; [12]", "value": "High"}, {"measurement": "secretion of cytokines", "setting": "[6]", "value": "significant dose response secretion of cytokines"}]}, {"smiles": "CCCCCCCCCCCCCCCCCCCCCCCCCC(=O)N[C@@H](CO[C@H]1O[C@H](CO)[C@H](O)[C@H](O)[C@H]1O)[C@H](O)[C@H](O)CCCCCCCCCCCCCC", "note": "[KRN7000, reference compound]", "values": [{"measurement": "CD8+ / CD4+ orientation of the iNKT response", "setting": "[5]", "value": "seems to not distinguish CD4+ to CD8+ cells stimulation"}, {"measurement": "LogEC50 IFN-γ", "setting": "[1]; HEK293-CD1d presenting cells", "value": "−8.447"}, {"measurement": "LogEC50 IL-2", "setting": "[1]; HEK293-CD1d presenting cells", "value": "−8.680"}, {"measurement": "LogEC50 IL-13", "setting": "[1]; HEK293-CD1d presenting cells", "value": "−7.956"}, {"measurement": "LogEC50 IFN-γ", "setting": "[1]; HeLa-CD1d presenting cells", "value": "−8.653"}, {"measurement": "LogEC50 IL-2", "setting": "[1]; HeLa-CD1d presenting cells", "value": "−9.315"}, {"measurement": "LogEC50 IL-13", "setting": "[1]; HeLa-CD1d presenting cells", "value": "−7.841"}, {"measurement": "IFN-γ secretion 10^−7M", "setting": "[6]; [7]", "value": "Low"}, {"measurement": "IFN-γ secretion 10^−7M", "setting": "[6]; [8]", "value": "Low"}, {"measurement": "IFN-γ secretion 10^−7M", "setting": "[6]; [9]", "value": "Low"}, {"measurement": "IFN-γ secretion 10^−7M", "setting": "[6]; [10]", "value": "Low"}, {"measurement": "IFN-γ secretion 10^−7M", "setting": "[6]; [11]", "value": "Low"}, {"measurement": "IFN-γ secretion 10^−7M", "setting": "[6]; [12]", "value": "Low"}, {"measurement": "secretion of cytokines", "setting": "[6]", "value": "very poorly active or ineffective"}]}]}
